{
  "source": "patent US11160875B2",
  "about": "“Therapeutic nanofiber hydrogels for local treatment of brain-related diseases” (THE JOHNS HOPKINS UNIVERSITY, priority 2015, dated 2021)",
  "key": {"[1]": {"test_system": "U87 human glioblastoma cells", "assay": "Cytotoxicity dose-response, SRB assay, U87", "format": "cell-based", "settings": "U87, 48 h incubation", "description": "(§1) FIGS. 16A-16B depict the cytotoxicity evaluation of PTX-buSS-FFFRGDR (SEQ ID NO: 1), PTX-buSS-VVVRGDR (SEQ ID NO: 2), and C16-FFFRGDR (SEQ ID NO: 1) against U87 human glioblastoma cells (A) and 965 human primary brain tumor cells (B). Cells were incubated with the PTX or conjugates for 48 h (U87) or 72 h (965) and cell viability was determined by SRB assay. Data are given as mean±s.d. (n=3).\n(§2) U87 human glioblastoma cells were provided by Prof. Denis Wirtz's lab (Department of Chemical and Biomolecular Engineering, Johns Hopkins University). Primary human brain cancer cell line 965 was provided by Prof. Alfredo Quinones-Hinojosa of the Johns Hopkins Medical School. All cell lines were cultured according to providers' protocols. U87 human glioblastoma cells were grown in DMEM with 10% FBS and 1% antibiotics. Primary human brain cancer cell line 965 was grown in DEME/F12 with 2% Neuroplex, 1% antibiotics, 20 ng/mL hEGF and 20 ng/mL hFGF.\n(§3) The cytotoxicity assays of PTX-FFFRGDR (SEQ ID NO: 1), PTX-VVVRGDR (SEQ ID NO: 2), C16-FFFRGDR (SEQ ID NO: 1) were determined using a dose-response study. A 96-well plate was seeded with cell sat a density of 5×10^3 cells/well and incubated at 37° C. for 24 h. The cells were then treated with varying concentrations of paclitaxel or conjugate in cell medium and incubated for a further 48 h (U87) or 72 h (primary cell lines). Cell viability was determined by sulforhodamine-B (SRB, Sigma Aldrich) assay according to the manufacturer's protocol. The data was fitted using the Hill equation function within the Igor Pro program and used to obtain the IC50 value.\n(§4) The in vitro cytotoxicity of PTX-buSS-FFFRGDR (SEQ ID NO: 1) was assessed an compared to that of free PTX, PTX-buSS-VVVRGDR (SEQ ID NO: 2) and C16-FFFRGDR (SEQ ID NO: 1) against two brain tumor cell lines, including U87 human glioblastoma cell line and 965 primary human brain tumor cell line (FIG. 16). Cells were incubated for 48 h with varying drug concentrations and cell viability was determined using sulforhodamine B (SRB) assay. […]"}, "[2]": {"test_system": "965 human primary brain tumor cells", "assay": "Cytotoxicity dose-response, SRB assay, 965", "format": "cell-based", "settings": "965 primary cells, 72 h incubation per FIG. 16 legend", "description": "as §1, §2, §3, §4"}, "[3]": {"test_system": "U87 human glioblastoma cells", "assay": "Hydrogel drug release and cytotoxicity, live/dead cell staining", "format": "cell-based", "settings": "U87, 24 h incubation with hydrogel, near-gel region 1 and peripheral region 2", "description": "FIGS. 17A-17F show the in vitro drug release and cytotoxicity study of PTX-buSS-FFFRGDR (SEQ ID NO: 1), PTX-buSS-VVVRGDR (SEQ ID NO: 2), and C16-FFFRGDR (SEQ ID NO: 1) hydrogels against U87 human glioblastoma cells. Live/dead assay cell images after 24 h of incubation with blank culture media (A and D), PTX-buSS-FFFRGDR (SEQ ID NO: 1) (B and E), or C16-FFFRGDR (SEQ ID NO: 1) (C and F).\nThe in vitro drug release and cytotoxicity of PTX-buSS-FFFRGDR (SEQ ID NO: 1) was assessed and compared to that of C16-FFFRGDR (SEQ ID NO: 1) blank hydrogel against U87 human glioblastoma cells (FIG. 17). Cells were incubated for 24 h with PTX-loaded and PTX-free hydro-gels and cell viability was determined using live/dead cell staining method. Two sections along gradient decaying radius were taken to compare cell viability after treatment with different hydrogels."}, "implanted tumors": {"test_system": "implanted tumors", "assay": "In vivo brain tumor resection model", "from_the_text": "A) A cranial window (5 mm) was made at the same location of tumor implantation, and the tumor was resected with microscissors. A droplet of CPT nanofiber solution was placed in the resected area, forming hydrogels upon delivery. A methacrylate membrane was used to cover the skull defect.\nA droplet of CPT-HKD nanofiber solution was placed in the resected area, forming hydrogels upon delivery. A methacrylate membrane was used to cover the skull defect.\nUsing the in vivo brain tumor resection model described above, mice with implanted tumors were treated with resection of the tumor alone or resection and addition of CPT-HKD hydrogel and the tumor site was subjected to BLI analysis at 1 and 2 weeks post-resection.\nUsing the in vivo brain tumor resection model described above, mice with implanted tumors were treated with resection of the tumor alone or resection and addition of CPT-HKD hydrogel for 1 month. After the test period, mouse brains were removed and sectioned in 10 μm thick sections and stained using H&E methods. Tumor area was determined by stereological analysis of consecutive 10 μm thick sections. p value was calculated by Mann-Whitney U (p=0.037)."}, "[4]": {"test_system": "primary glioma cells derived from three patients", "settings": "varying concentrations", "method": "(§5) (C) Cumulative release of drug from the hydrogel formed by CPT-HKD (1.2 wt %) over one month. […] (D) Cell viability of primary glioma cells derived from three patients treated by CPT-HKD of varying concentrations.\n(§6) CPT-HKD was incubated with primary glioma cells derived from three patients to determine cytotoxicity (FIG. 18D)."}, "[5]": {"assay": "Cumulative release of drug from CPT-HKD hydrogel", "format": "physicochemical", "method": "as §5, §6"}, "[6]": {"assay": "Hydrogel formation of CPT-HKD nanofibers in DPBS", "format": "physicochemical", "method": "as §5, §6"}, "[7]": {"assay": "Paclitaxel release study in PBS buffer with or without GSH", "format": "physicochemical", "settings": "37° C., 50 μM, presence or absence of 10 mM GSH", "description": "FIGS. 15A-15D illustrate fluorescence measurements to determine the CMC value of PTX-buSS-FFFRGDR (SEQ ID NO: 1) (A) and PTX-buSS-VVVRGDR (SEQ ID NO: 2) (B) based on Nile Red encapsulation within the assembled nanostructures. Representative CD spectra (solid lines) and UV-vis spectra (dash lines) of 200 μM PTX-buSS-FFFRGDR (SEQ ID NO: 1), 200 μM PTX-buSS-VVVRGDR (SEQ ID NO: 2) and 200 μM. C16-FFFRGDR (SEQ ID NO: 1) (C). Paclitaxel release study of PTX-buSS-FFFRGDR (SEQ ID NO: 1) and PTX-buSS-VVVRGDR (SEQ ID NO: 2) in PBS buffer at 37° C. at 50 μM. Solutions were incubated in the presence or absence of 10 mM GSH. Data are given as mean±s.d. (n=3).\nSince the release of the active compound is critical and tunable by altering nanofilaments morphologies, experiments to determine PTX release were carried out in PBS buffer at 37° C. in the presence or absence of 10 mM GSH (FIG. 15D)."}},
  "note": "Non-standard residues stand in square brackets, D forms with d. Residues, ends and D or L forms follow the SMILES beside them. No end group written: not given here. ξ: configuration not given here. *: point of attachment. Paclitaxel(2'-OCO(CH2)3S) = CC(=O)O[C@H]1C(=O)[C@@]2(C)[C@H]([C@H](OC(=O)c3ccccc3)[C@]3(O)C[C@H](OC(=O)[C@H](OC(=O)CCCS*)[C@@H](NC(=O)c4ccccc4)c4ccccc4)C(C)=C1C3(C)C)[C@]1(OC(C)=O)CO[C@@H]1C[C@@H]2O; Palmitoyl = CCCCCCCCCCCCCCCC(=O)*; ξV = CC(C)C(N)C(=O)O",
  "data": [
    {"compound": "CCCCCCCCCCCCCCCC(=O)N[C@@H](Cc1ccccc1)C(=O)N[C@@H](Cc1ccccc1)C(=O)N[C@@H](Cc1ccccc1)C(=O)N[C@@H](CCCNC(=N)N)C(=O)NCC(=O)N[C@@H](CC(=O)O)C(=O)N[C@@H](CCCNC(=N)N)C(=O)O", "note": "[C16-FFFRGDR] (Palmitoyl-FFFRGDR-OH)", "values": [
      {"measurement": "in vitro cytotoxicity (cell viability)", "setting": "[1]", "value": "didn't show any significant toxicity"},
      {"measurement": "in vitro cytotoxicity (cell viability)", "setting": "[2]", "value": "didn't show any significant toxicity"},
      {"measurement": "cell viability by live/dead staining around the hydrogel", "setting": "[3]", "value": "non-toxicity against U87 cells in both regions"}
    ]},
    {"compound": "CC(=O)N[C@@H](CSSCCCC(=O)O[C@@H](C(=O)O[C@H]1C[C@@]2(O)[C@@H](OC(=O)c3ccccc3)[C@@H]3[C@]4(OC(C)=O)CO[C@@H]4C[C@H](O)[C@@]3(C)C(=O)[C@H](OC(C)=O)C(=C1C)C2(C)C)[C@@H](NC(=O)c1ccccc1)c1ccccc1)C(=O)N[C@@H](Cc1ccccc1)C(=O)N[C@@H](Cc1ccccc1)C(=O)N[C@@H](Cc1ccccc1)C(=O)N[C@@H](CCCNC(=N)N)C(=O)NCC(=O)N[C@@H](CC(=O)O)C(=O)N[C@@H](CCCNC(=N)N)C(=O)O", "note": "[PTX-buSS-FFFRGDR] (Ac-C(Paclitaxel(2'-OCO(CH2)3S))FFFRGDR-OH)", "values": [
      {"measurement": "in vitro cytotoxicity (cell viability)", "setting": "[1]", "value": "near-identical toxicity to free PTX"},
      {"measurement": "in vitro cytotoxicity (cell viability)", "setting": "[2]", "value": "near-identical toxicity to free PTX"}
    ]},
    {"compound": "CPT-HKD (GVVQQHKD; also: camptothecin conjugated via buSS linker, site not given here)", "values": [
      {"measurement": "BLI signal intensity versus resection only group", "setting": "implanted tumors; 1 and 2 weeks post-resection, p=0.0076", "value": "significant lower intensity"},
      {"measurement": "difference in survival versus resection only group", "setting": "implanted tumors; Kaplan-Meier analysis, p=0.01", "value": "extension of one-week"},
      {"measurement": "tumor area versus resection only group", "setting": "implanted tumors; after 1 month of treatment, stereological analysis of 10 μm sections, p=0.037", "value": "Reduces Brain Tumor Area"},
      {"measurement": "survival (Kaplan-Meier)", "setting": "implanted tumors; resection plus hydrogel, resection only 35 days, p=0.01", "value": 41, "unit": "days"},
      {"measurement": "cytotoxicity (cell viability)", "setting": "[4]", "value": "dose dependent cytotoxicity shown in all three cell lines"},
      {"measurement": "hydrogel shape retention", "setting": "[5]; after one month", "value": "retained its shape after one month"},
      {"measurement": "cumulative release of drug from the hydrogel", "setting": "[5]; hydrogel 1.2 wt %, over one month", "value": "about 15 % of total bound drug"},
      {"measurement": "concentration at which nanofibers form a hydrogel", "setting": "[6]", "value": "higher than 0.4 wt %"}
    ]},
    {"compound": "CC(=O)N[C@@H](CSSCCCC(=O)O[C@@H](C(=O)O[C@H]1C[C@@]2(O)[C@@H](OC(=O)c3ccccc3)[C@@H]3[C@]4(OC(C)=O)CO[C@@H]4C[C@H](O)[C@@]3(C)C(=O)[C@H](OC(C)=O)C(=C1C)C2(C)C)[C@@H](NC(=O)c1ccccc1)c1ccccc1)C(=O)NCC(=O)N[C@H](C(=O)NC(C(=O)N[C@H](C(=O)N[C@@H](CCCNC(=N)N)C(=O)NCC(=O)N[C@@H](CC(=O)O)C(=O)N[C@@H](CCCNC(=N)N)C(=O)O)C(C)C)C(C)C)C(C)C", "note": "(stereo partly shown) [PTX-buSS-VVVRGDR] (Ac-C(Paclitaxel(2'-OCO(CH2)3S))GV[ξV]VRGDR-OH)", "values": [
      {"measurement": "in vitro cytotoxicity (cell viability)", "setting": "[1]", "value": "near-identical toxicity to free PTX"},
      {"measurement": "in vitro cytotoxicity (cell viability)", "setting": "[2]", "value": "near-identical toxicity to free PTX"},
      {"measurement": "PTX release rate, with GSH versus without", "setting": "[7]", "value": "faster release rates under GSH conditions"}
    ]}
  ]
}
